In patent US6905841B2, “Enzymatic substrates for detecting Pseudomonas aeruginas” (Biomerieux S.A., priority 1999, dated 2005):
Where two headings read alike, the source gives them in different places.

Legend:
β-alanine aminopeptidase [1] = conditions: Citrobacter freundii; 2 strains tested; read after 22 to 24 hours
β-alanine aminopeptidase [2] = conditions: Enterobacter intermedius; 1 strain tested; read after 22 to 24 hours
β-alanine aminopeptidase [3] = conditions: Proteus vulgaris; 1 strain tested; read after 22 to 24 hours
β-alanine aminopeptidase [4] = conditions: Serratia marcescens; 3 strains tested; read after 22 to 24 hours
β-alanine aminopeptidase [5] = conditions: Chryseobacterium meningosepticum; 2 strains tested; read after 22 to 24 hours
β-alanine aminopeptidase [6] = conditions: Pseudomonas fluorescens; 2 strains tested; read after 22 to 24 hours
β-alanine aminopeptidase [7] = conditions: Shewanella algae; 1 strain tested; read after 22 to 24 hours
β-alanine aminopeptidase [8] = conditions: Shewanella putrefaciens; 1 strain tested; read after 22 to 24 hours
β-alanine aminopeptidase [9] = conditions: Sphingomonas paucimobilis; 2 strains tested; read after 22 to 24 hours
β-alanine aminopeptidase [10] = conditions: Streptococcus pyogenes; 2 strains tested; read after 22 to 24 hours
β-alanine aminopeptidase [11] = conditions: Enterococcus faecium; 2 strains tested; read after 22 to 24 hours
β-alanine aminopeptidase [12] = test: APIZYM-type test strips with β-alanyl-β-naphthylamide; type: cell-based; conditions: Escherichia coli; five strains
β-alanine aminopeptidase [13] = test: as above; type: cell-based; conditions: Shigella spp.; 4 strains
β-alanine aminopeptidase [14] = test: as above; type: cell-based; conditions: Salmonella choleraesuis; five strains
β-alanine aminopeptidase [15] = test: as above; type: cell-based; conditions: Salmonella paratyphi A; five strains
β-alanine aminopeptidase [16] = test: as above; type: cell-based; conditions: Salmonella gallinarum; 3 strains
β-alanine aminopeptidase [17] = test: as above; type: cell-based; conditions: Klebsiella pneumoniae, spp. oxytoca; five strains
β-alanine aminopeptidase [18] = test: as above; type: cell-based; conditions: Hafnia alvei; five strains
β-alanine aminopeptidase [19] = test: as above; type: cell-based; conditions: Enterobacter cloacae; five strains
β-alanine aminopeptidase [20] = test: as above; type: cell-based; conditions: Serratia fonticola; five strains
β-alanine aminopeptidase [21] = test: as above; type: cell-based; conditions: Serratia plymuthica; five strains
β-alanine aminopeptidase [22] = test: as above; type: cell-based; conditions: Proteus rettgeri; five strains
β-alanine aminopeptidase [23] = test: as above; type: cell-based; conditions: Providencia alcalifaciens; five strains
β-alanine aminopeptidase [24] = test: as above; type: cell-based; conditions: Pseudomonas alcaligenes; five strains
β-alanine aminopeptidase [25] = test: as above; type: cell-based; conditions: Shewanella putrefaciens; five strains
β-alanine aminopeptidase [26] = test: as above; type: cell-based; conditions: Stenotrophomonas maltophilia; five strains
β-alanine aminopeptidase [27] = test: as above; type: cell-based; conditions: Brevundimonas vesicularis; five strains
β-alanine aminopeptidase [28] = test: as above; type: cell-based; conditions: Ralstonia picketti; five strains
β-alanine aminopeptidase [29] = test: as above; type: cell-based; conditions: Pseudomonas oryzihabitans; five strains
β-alanine aminopeptidase [30] = test: as above; type: cell-based; conditions: Sphingomonas paucimobilis; five strains
β-alanine aminopeptidase [31] = test: as above; type: cell-based; conditions: Achroniobacter xylosoxidans spp. denitrificans; five strains
β-alanine aminopeptidase [32] = test: as above; type: cell-based; conditions: Bordetella bronchiseptica; five strains
β-alanine aminopeptidase [33] = test: as above; type: cell-based; conditions: CDC IV C2; five strains
β-alanine aminopeptidase [34] = test: as above; type: cell-based; conditions: Vibrio alginolyticus; five strains
β-alanine aminopeptidase [35] = test: as above; type: cell-based; conditions: Empedobacter brevis; 3 strains
β-alanine aminopeptidase [36] = test: as above; type: cell-based; conditions: Actinobacillus ureae; 1 strain
β-alanine aminopeptidase [37] = test: as above; type: cell-based; conditions: Pasteurella haemolytica; five strains
β-alanine aminopeptidase [38] = type: cell-based; conditions: out of the seventy nine (79) tested

NCCC(=O)c1c(N)cc(Cl)c(O)c1Cl
1: Number of negative results (β-alanine aminopeptidase [2]) | Number of negative results (β-alanine aminopeptidase [3]) | Number of negative results (β-alanine aminopeptidase [6]) | Number positive results (β-alanine aminopeptidase [6]) | Number of negative results (β-alanine aminopeptidase [7]) | Number of negative results (β-alanine aminopeptidase [8])
2: Number of negative results (β-alanine aminopeptidase [1]) | Number of negative results (β-alanine aminopeptidase [5]) | Number of negative results (β-alanine aminopeptidase [9]) | Number of negative results (β-alanine aminopeptidase [10]) | Number of negative results (β-alanine aminopeptidase [11])
0: Number positive results (β-alanine aminopeptidase [1]) | Number positive results (β-alanine aminopeptidase [2]) | Number positive results (β-alanine aminopeptidase [3]) | Number of negative results (β-alanine aminopeptidase [4]) | Number positive results (β-alanine aminopeptidase [5]) | Number positive results (β-alanine aminopeptidase [7]) | Number positive results (β-alanine aminopeptidase [8]) | Number positive results (β-alanine aminopeptidase [9]) | Number positive results (β-alanine aminopeptidase [10]) | Number positive results (β-alanine aminopeptidase [11])
3: Number positive results (β-alanine aminopeptidase [4])

β-alanyl-β-naphthylamide
6 species: number of species found to possess β-alanine aminopeptidase activity (β-alanine aminopeptidase [38])
negative: β-alanine aminopeptidase activity, result (β-alanine aminopeptidase [12]) | β-alanine aminopeptidase activity, result (β-alanine aminopeptidase [13]) | β-alanine aminopeptidase activity, result (β-alanine aminopeptidase [14]) | β-alanine aminopeptidase activity, result (β-alanine aminopeptidase [15]) | β-alanine aminopeptidase activity, result (β-alanine aminopeptidase [16]) | β-alanine aminopeptidase activity, result (β-alanine aminopeptidase [17]) | β-alanine aminopeptidase activity, result (β-alanine aminopeptidase [18]) | β-alanine aminopeptidase activity, result (β-alanine aminopeptidase [19]) | β-alanine aminopeptidase activity, result (β-alanine aminopeptidase [20]) | β-alanine aminopeptidase activity, result (β-alanine aminopeptidase [21]) | β-alanine aminopeptidase activity, result (β-alanine aminopeptidase [22]) | β-alanine aminopeptidase activity, result (β-alanine aminopeptidase [23]) | β-alanine aminopeptidase activity, result (β-alanine aminopeptidase [24]) | β-alanine aminopeptidase activity, result (β-alanine aminopeptidase [25]) | β-alanine aminopeptidase activity, result (β-alanine aminopeptidase [26]) | β-alanine aminopeptidase activity, result (β-alanine aminopeptidase [27]) | β-alanine aminopeptidase activity, result (β-alanine aminopeptidase [28]) | β-alanine aminopeptidase activity, result (β-alanine aminopeptidase [29]) | β-alanine aminopeptidase activity, result (β-alanine aminopeptidase [30]) | β-alanine aminopeptidase activity, result (β-alanine aminopeptidase [31]) | β-alanine aminopeptidase activity, result (β-alanine aminopeptidase [32]) | β-alanine aminopeptidase activity, result (β-alanine aminopeptidase [33]) | β-alanine aminopeptidase activity, result (β-alanine aminopeptidase [34]) | β-alanine aminopeptidase activity, result (β-alanine aminopeptidase [35]) | β-alanine aminopeptidase activity, result (β-alanine aminopeptidase [36]) | β-alanine aminopeptidase activity, result (β-alanine aminopeptidase [37])
